# In patent US8269026B2, “Lupane derivatives useful for treating HIV” (priority 2008, dated 2012):
# Structures can show the parent of a compound that is named as a salt. Where two headings read alike, the source gives them in different places.
# Tested on: HIV-1 (HIVIIIB) replication in MT2 cell line
# Test: HIV-1 replication in MT2 cell line with and without 30% human serum (viral RT activity in supernatant)
# Type: cell-based
# Conditions: Human immunodeficiency virus 1, MT2 cells, average IC50 if tested more than once
# Method in brief: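 MT2 cells infected with HIV-1 IIIB at MOI 0.5 for 3 h, washed, seeded at 0.5×10^6/ml in RPMI/10% FBS with serially diluted compound, with or without 30% human serum; medium and compound refreshed on day 3. RT activity in supernatant at day 5; IC50 and IC90 derived.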
# [1] = with 30% human serum, read-out: MT2 (HIVIIIB) with HS 30% IC50 range
# [2] = without human serum, read-out: MT2 (HIVIIIB) IC50 range
Structure (SMILES),IC50 [1] [nM],IC50 [2] [nM]
"CC(C)C1=C2[C@H]3CC[C@@H]4[C@@]5(C)CC[C@H](OC(=O)CC(C)(C)C(=O)O)C(C)(C)[C@@H]5CC[C@@]4(C)[C@]3(C)CC[C@@]2(NC(=O)c2cncn2C)CC1=O [19-18, 3β-O-(3′,3′-Dimethylsuccinyl)-17β-(1-methyl-1H-imidazole-5-amido)-21-oxolup-18-ene]",< 199,–
"CC(C)C1=C2C3CCC4[C@@]5(C)CC[C@H](OC(=O)CC(C)(C)C(=O)O)C(C)(C)C5CC[C@@]4(C)[C@]3(C)CC[C@@]2(NC(=O)c2nnc(-c3ccccc3)o2)CC1=O (stereo partly drawn) [19-63, 3β-O-(3′,3′-Dimethylsuccinyl)-17β-(5-phenyl-[1,3,4]oxadiazole-2-amido)-21-oxolup-18-ene]",< 199,–
"CC(=O)N[C@@]12CC[C@]3(C)[C@H](CC[C@@H]4[C@@]5(C)CC[C@H](OC(=O)CC(C)(C)C(=O)O)C(C)(C)[C@@H]5CC[C@]43C)C1=C(C(C)C)C(=O)C2 [19-1, 3β-O-(3′,3′-Dimethylsuccinyl)-17β-acetylamino-21-oxolup-18-ene]",< 199,< 199
"CC(C)C1=C2C3CCC4[C@@]5(C)CC[C@H](OC(=O)CC(C)(C)C(=O)O)C(C)(C)C5CC[C@@]4(C)[C@]3(C)CC[C@@]2(NC(=O)c2cn[nH]c2)CC1=O (stereo partly drawn) [19-82, 3β-O-(3′,3′-Dimethylsuccinyl)-17β-(1H-pyrazole-4-amido)-21-oxolup-18-ene]",< 199,–
"CC(C)C1=C2C3CCC4[C@@]5(C)CC[C@H](OC(=O)CC(C)(C)C(=O)O)C(C)(C)C5CC[C@@]4(C)[C@]3(C)CC[C@@]2(NC(=O)N[C@H](C)C2CCCCC2)CC1=O (stereo partly drawn) [17-55, 3β-O-(3′,3′-Dimethylsuccinyl)-17β-[N′-((R)-1-cyclohexyl-ethyl)ureido]-21-oxolup-18-ene]",< 199,–
"CC(C)C(=O)N[C@@]12CC[C@]3(C)C(CCC4[C@@]5(C)CC[C@H](OC(=O)CC(C)(C)C(=O)O)C(C)(C)C5CC[C@]43C)C1=C(C(C)C)C(=O)C2 (stereo partly drawn) [19-31, 3β-O-(3′,3′-Dimethylsuccinyl)-17β-isopropylamido-21-oxolup-18-ene]",< 199,–
"CC(C)C1=C2[C@H]3CC[C@@H]4[C@@]5(C)CC[C@H](OC(=O)CC(C)(C)C(=O)O)C(C)(C)[C@@H]5CC[C@@]4(C)[C@]3(C)CC[C@@]2(NC(=O)N2CCN(C)CC2)CC1=O [17-16, 3β-O-(3′,3′-Dimethylsuccinyl)-17β-[(4-methyl-piperazine-1-carbonyl)-amino]-21-oxolup-18-ene]",< 199,–
"CC(C)C1=C2C3CCC4[C@@]5(C)CC[C@H](OC(=O)CC(C)(C)C(=O)O)C(C)(C)C5CC[C@@]4(C)[C@]3(C)CC[C@@]2(NC(=O)NCC2CCN(C)CC2)CC1=O (stereo partly drawn) [17-28, 3β-O-(3′,3′-Dimethylsuccinyl)-17β-[N′-(1-methyl-piperidin-4-ylmethyl)-ureido]-21-oxolup-18-ene]",> 1000,–
"CC(C)C1=C2[C@H]3CC[C@@H]4[C@@]5(C)CC[C@H](OC(=O)CC(C)(C)C(=O)O)C(C)(C)[C@@H]5CC[C@@]4(C)[C@]3(C)CC[C@@]2(NC(=O)c2ccc(F)cc2)CC1=O [19-13, 3β-O-(3′,3′-Dimethylsuccinyl)-17β-(4-fluorobenzamido)-21-oxolup-18-ene]",< 199,< 199
CC(C)C1=C2C3CCC4[C@@]5(C)CC[C@H](OC(=O)CC(C)(C)C(=O)O)C(C)(C)C5CC[C@@]4(C)[C@]3(C)CC[C@@]2(NC(=O)N2CCC(F)(F)C2)CC1=O (stereo partly shown) [17-58],< 199,–
"CC(C)C1=C2C3CCC4[C@@]5(C)CC[C@H](OC(=O)CC(C)(C)C(=O)O)C(C)(C)C5CC[C@@]4(C)[C@]3(C)CC[C@@]2(NC(=O)N2CC[C@@H](NC(=O)OC(C)(C)C)C2)CC1=O (stereo partly drawn) [17-40, 3β-O-(3′,3′-Dimethylsuccinyl)-17β-[((R)-3-tert-butyloxycarbonylamino-pyrrolidine-1-carbonyl)-amino]-21-oxolup-18-ene]",< 199,–
"CC(C)C1=C2[C@H]3CC[C@@H]4[C@@]5(C)CC[C@H](OC(=O)CC(C)(C)C(=O)O)C(C)(C)[C@@H]5CC[C@@]4(C)[C@]3(C)CC[C@@]2(NC(=O)c2cccc(F)c2)CC1=O [19-12, 3β-O-(3′,3′-Dimethylsuccinyl)-17β-(3-fluorobenzamido)-21-oxolup-18-ene]",< 199,–
"CC(C)C1=C2[C@H]3CC[C@@H]4[C@@]5(C)CC[C@H](OC(=O)CC(C)(C)C(=O)O)C(C)(C)[C@@H]5CC[C@@]4(C)[C@]3(C)CC[C@@]2(NC(=O)OC(C)(C)C)CC1=O [14-1, 3β-O-(3′,3′-Dimethylsuccinyl)-17β-tert-butyloxycarbonylamino-21-oxolup-18-ene]",< 199,< 199
CC(C)C1=C2[C@H]3CC[C@@H]4[C@@]5(C)CC[C@H](OC(=O)CC(C)(C)C(=O)O)C(C)(C)[C@@H]5CC[C@@]4(C)[C@]3(C)CC[C@@]2(NC(=O)[C@@H]2CCCN2C)CC1=O [19-42],< 199,–
"CC(C)C1=C2[C@H]3CC[C@@H]4[C@@]5(C)CC[C@H](OC(=O)CC(C)(C)C(=O)O)C(C)(C)[C@@H]5CC[C@@]4(C)[C@]3(C)CC[C@@]2(N)CC1=O [15-1, 3β-O-(3′,3′-Dimethylsuccinyl)-17β-amino-21-oxolup-18-ene hydrochloride]",< 199,< 199
"CC(C)C1=C2[C@H]3CC[C@@H]4[C@@]5(C)CC[C@H](OC(=O)CC(C)(C)C(=O)O)C(C)(C)[C@@H]5CC[C@@]4(C)[C@]3(C)CC[C@@]2(NC(=O)N2CCN(C(C)C)CC2)CC1=O [17-29, 3β-O-(3′,3′-Dimethylsuccinyl)-17β-[(4-isopropyl-piperazine-1-carbonyl)-amino]-21-oxolup-18-ene]",< 199,–
"CC(C)C1=C2[C@H]3CC[C@@H]4[C@@]5(C)CC[C@H](OC(=O)[C@H]6CC[C@@](C)(C(=O)O)C6(C)C)C(C)(C)[C@@H]5CC[C@@]4(C)[C@]3(C)CC[C@@]2(NC(=O)OC(C)(C)C)CC1=O [14-3, 3β-O-[(1′R,3′S)-1′,2′,2′-Trimethyl-cyclopentane-3′-carboxylic acid-1′-carboxyl]-17β-[N-tert-butyloxycarbonyl-amino]-21-oxolup-18-ene]",< 199,–
"CC(C)C1=C2[C@H]3CC[C@@H]4[C@@]5(C)CC[C@H](OC(=O)CC(C)(C)C(=O)O)C(C)(C)[C@@H]5CC[C@@]4(C)[C@]3(C)CC[C@@]2(NC(=O)CCN2CCCC2=O)CC1=O [19-41, 3β-O-(3′,3′-Dimethylsuccinyl)-17β-[3-(2-oxo-pyrrolidin-1-yl)-propionamido]-21-oxolup-18-ene]",< 199,–
"Cc1cccc(C(=O)N[C@@]23CC[C@]4(C)[C@H](CC[C@@H]5[C@@]6(C)CC[C@H](OC(=O)CC(C)(C)C(=O)O)C(C)(C)[C@@H]6CC[C@]54C)C2=C(C(C)C)C(=O)C3)c1 [19-44, 3β-O-(3′,3′-Dimethylsuccinyl)-17β-(3-methylbenzamido)-21-oxolup-18-ene]",< 199,–
"CC(C)C1=C2[C@H]3CC[C@@H]4[C@@]5(C)CC[C@H](OC(=O)CC(C)(C)C(=O)O)C(C)(C)[C@@H]5CC[C@@]4(C)[C@]3(C)CC[C@@]2(NC(=O)[C@H]2CCCCN2C)CC1=O [19-66, 3β-O-(3′,3′-Dimethylsuccinyl)-17β-((R)-1-methylpiperidine-2-amido)-21-oxolup-18-ene]",< 199,–
"CC(C)C1=C2C3CCC4[C@@]5(C)CC[C@H](OC(=O)CC(C)(C)C(=O)O)C(C)(C)C5CC[C@@]4(C)[C@]3(C)CC[C@@]2(NC(=O)NC(C)(C)C2CCCCC2)CC1=O (stereo partly drawn) [17-70, 3β-O-(3′,3′-Dimethylsuccinyl)-17β-[N′-(1-methyl-1-cyclohexyl-ethyl)-ureido]-21-oxolup-18-ene]",> 1000,–
